In patent US8163795B2, “Chroman derivatives, medicaments and use in therapy” (Marshall Edwards, Inc., priority 2004, dated 2012):
Several values for one entry are separate records, joined by “and”; a condition that tells them apart may be missing. Equal entries are not always repeated. Where two headings read alike, the source gives them in different places.

Experiments:
[1] = test system: normal fibroblasts (MRC-5); assay: Apoptosis in normal fibroblasts; type: cell-based; details: same concentration (8 μM) and exposure times (24 and 48 hr) as melanoma cells
Description: Studies were conducted on normal fibroblasts (MRC-5) and TRAIL-sensitive melanoma cells (ME4405 and MEL-RM) using 8 μM of either DHE, or HMC over 24 and 48 hr of exposure (FIG. 9).

[2] = Toxicity in HPAC tumour bearing mice (weight, histopathology, serum biochemistry); type: in vivo, Athymic nu/nu BALB/c mice
From the text: (§1) Subconfluent (80%) flasks of HPAC cells were trypsinised, washed in Hanks balanced salt solution (Sigma), resuspended in dubellco's minimal essential medium (Sigma) and an equal volume of Matrigel™ (Becton Dickson) at a density of 3.7×10^7 cells per ml. Athymic nu/nu BALB/c mice were s.c. inoculated with 3.7×10^6 HPAC cells bi-laterally midway along the dorsal surface. For the HMC (n=3 per dosage regimen) and control groups (n=2), treatment commenced five days post inoculation to allow tumour formation. HMC was formulated 20% HPBCD and delivered i.p. daily for 15 days. The control group received equivalent (weight:weight) i.p. doses of 20% HPBCD. Tumour measurements commenced on day 5 post inoculation (10×10 mm^2) and were measured in 2 dimensions, length (a) and width (b), using calipers. Tumor weight (W) was calculated by the formula W=ab2/2, where a, is the longer of the 2 measurements (Odwyer et al., 1994). Tumour proliferation curves were analyzed with respect to maximal tumour inhibition (treated/control, TIC). On sacrifice, liver, kidney, femur, stomach and colon tissue were fixed in buffered formalin, embedded in paraffin, sections cut and stained with H&E. Stained sections were then submitted to Rothwell consulting for histopathology analysis. Serum biochemistry was conducted on bloods taken from control, vehicle control and HMC treatment groups. Serum analysis was conducted by Veterinary Clinical pathology (U. Syd).
(§2) Histopathological examination of haematoxylin and eosin-stained sections cut from formalin-fixed tissues from two series of experimental mice was made. The liver, kidney, stomach and colon were examined for evidence of toxic damage, the spleen and bone marrow for evidence of myelosuppression and the tumour for degree of necrosis. A score of 0-5 was allocated to each tumour specimen for the degree of necrosis present, a 0 score representing, no necrosis and a score of 5, total necrosis. The sections were scored ‘blind’ on two separate occasions and the final score given in the results is the mean of these two scores.
Alakalines phosphatase (ALP), alanine transferase (ALT) and creatine (Cre) were assessed in HMC treated vs control animals. ALP and Cre levels were similar to control and fell within normal ranges (for rat) however, ALT levels in vehicle control and HMC treated groups were much lower than no treatment control levels.

cancer cell lines = assay: Proliferation assays, statements over several cancer cell lines; type: cell-based; details: SKOV-3, PC3, MCF-7, MDA-MB-468, HTB-138, HPAC, large cell lung cancer
Description: IC50 values were determined for each cell line. Cells were seeded in 96-well plates at an appropriate cell density as determined from growth kinetics analysis and cultured for 5 days in the absence and presence of the test compounds. Cell proliferation was assessed after the addition of 20 μl of 3-4,5 dimethylthiazol-2,5-diphenyl tetrazolium bromide (MTT, 2.5 mg/ml in PBS, Sigma) for 3-4 hrs at 37° C. according to manufacturer's instructions. IC50 values were calculated from semi-log plots of % of control proliferation on the y-axis against log dose on the x-axis.

[3] = test system: HPAC pancreatic cancer tumours; assay: Pilot in vivo efficacy study, HPAC tumour bearing mice; parameters: species or system Athymic nu/nu BALB/c mice
From the text: as §1, §2

[4] = test system: ME4405 melanoma cells (TRAIL sensitive); assay: Apoptosis incidence in melanoma cells; type: cell-based
A2058 melanoma cell line = assay: Proliferation assay (MTT); type: cell-based; details: Homo sapiens
MM200 melanoma cell line = assay: Proliferation assay (MTT); type: cell-based; details: read-out: IC50
TXB2 = assay: Eicosanoid synthesis in LPS-stimulated murine macrophages (RAW 264.7); type: cell-based, mouse; details: 10 μM; negative values indicate inhibition
Description: (§3) The mouse macrophage cell line RAW 264.7 was cultured in DMEM supplemented with foetal calf serum (FCS), 2 mM glutamine and 50 U/ml penicillin/streptomycin. Subconfluent cells were detached from the flask by gentle scraping and 24-well plates seeded at 5×10^5 cells per well and allowed to adhere for 1 hr. Cells were then treated either test compound at a concentration of 10 μM (in 0.025% DMSO) or vehicle alone, and incubated for 1 hr. LPS 50 ng/ml (LPS—Sigma-Aldrich) was then added. After incubation for 16 hrs, culture media was collected and stored at −80° C. for ecosanoid measurements using enzyme immunometric assays (PGE2 and TXB2—Cayman Chemical).
(§4) Table 16: Percentage change in eicosanoid synthesis after incubating test compound at 10 μM compared with incubation with vehicle alone.

PGE2 = assay: as above; type: cell-based, mouse; details: 10 μM; negative values indicate inhibition
Description: as §3, §4

[5] = DHE and HMC pharmacokinetics, oral, mice; type: in vivo, female BALB/c mice
Description: HMC and DHE were prepared as homogenous suspensions in 1% CMC (m:v, water). Both formulations were delivered orally by gavage to female BALB/c mice at a dosage of 50 mg/kg. Three animals were allocated to each timepoint (15 min, 30 min, 1 hr, 4 hr and 24 hr). At each respective timepoint, animals were euthanased by cervical dislocation and blood collected. Free HMC was analysed by mass spectroscopy.

[6] = individual HMC treated mice, 100 mg/kg, listed as HMC

## COc1ccc(C2c3ccc(O)cc3OCC2c2ccc(O)cc2)cc1 (stereo not drawn) [Compound 1, 3-(4-hydroxyphenyl)-4-(4-methoxyphenyl)chroman-7-ol]
[1]
  induction of apoptosis in normal fibroblasts: do not induce apoptosis
[2]; 100 mg/kg daily for 15 days
  toxicity as determined by weight loss: no signs of toxicity
[2]; 100 mg/kg to mice
  toxicity to major organs by histopathology: not toxic to major organs
[2]; [6]
  ALP (serum): 111 U/L and 100 U/L and 74 U/L
  ALT (serum): 482 U/L and 494 U/L and 505 U/L
  Cre (serum): 8 uM (2×) and 17 uM
  Urea (serum): 8.11 mM and 7.79 mM and 7.27 mM
Cancer cell lines
  activity compared to DHE IC50 values: 5-10 fold
[3]; 100 mg/kg i.p. daily, 15 days
  final tumour burden (mean terminal tumour mass), % T/C: 62%
[3]; 100 mg/kg i.p. daily, 15 days, in 20% HPBCD
  proliferation of HPAC tumours over the treatment period vs vehicle control: significantly retarded the proliferation of HPAC tumours
[3]; individual treated mice, 0 no necrosis, 5 total necrosis, mean of two blind scores
  Necrosis Score 0-5 (tumour): 2
[4]; 24 hr exposure, 1 uM
  Percent Apoptosis: 0%
[4]; 24 hr exposure, 2 uM
  Percent Apoptosis: 8%
[4]; 24 hr exposure, 4 uM
  Percent Apoptosis: 9%
[4]; 24 hr exposure, 8 uM
  Percent Apoptosis: 11%
[4]; 24 hr exposure, 20 uM
  Percent Apoptosis: 19%
[4]; 48 hr exposure, 1 uM
  Percent Apoptosis: 1.5%
[4]; 48 hr exposure, 2 uM
  Percent Apoptosis: 8%
[4]; 48 hr exposure, 4 uM
  Percent Apoptosis: 42%
[4]; 48 hr exposure, 8 uM
  Percent Apoptosis: 20%
[4]; 48 hr exposure, 20 uM
  Percent Apoptosis: 18%
A2058 melanoma cell line; A2058, Table 2.1, Melanoma A2058
  IC50: 1.2 ± 0.65 µM
A2058 melanoma cell line; A2058, Table 15, melanoma A2058
  IC50: 1.42 ± 0.48 µM
MM200 melanoma cell line; Table 2.1, Melanoma MM200
  IC50: 0.7 ± 0.03 µM
MM200 melanoma cell line; Table 2.2, Melanoma MM200
  IC50: 1.07 ± 0.5 µM
MM200 melanoma cell line; Table 15, melanoma MM200, monotherapy
  IC50: 1.13 ± 0.52 µM
TXB2
  Percentage change in TXB2 synthesis vs vehicle alone: 0%
PGE2
  Percentage change in PGE2 synthesis vs vehicle alone: −33.8%
[5]; female, BALB/c, mouse, plasma, po, 50 mg/kg p.o., Time 0.25, read-out: Free plasma concentration
  concentration at 0.25 hr: 380 ± 40 nM
[5]; female, BALB/c, mouse, plasma, po, 50 mg/kg p.o., Time 0.5, read-out: Free plasma concentration
  concentration at 0.5 hr: 1300 ± 200 nM
[5]; female, BALB/c, mouse, plasma, po, 50 mg/kg p.o., Time 1, read-out: Free plasma concentration
  concentration at 1 hr: 950 ± 400 nM
[5]; female, BALB/c, mouse, plasma, po, 50 mg/kg p.o., Time 4, read-out: Free plasma concentration
  concentration at 4 hr: 190 ± 80 nM
[5]; female, BALB/c, mouse, plasma, po, 50 mg/kg p.o., Time 24, read-out: Free plasma concentration
  concentration at 24 hr: 0 nM
[5]; oral 50 mg/kg
  maximum plasma concentration of the free form: 1.3 µM
  ratio of free:total: 0.92
  time of maximum free concentration: 30 min
